# Source: publication PMC8868285, “Pharmacological Inhibition of Epac1 Averts Ferroptosis Cell Death by Preserving Mitochondrial Integrity” (Antioxidants, 2022)
# Experiments:
# HT-22 cells [1] = test: Extracellular flux analysis (Seahorse), oxygen consumption rate; format: cell-based, mouse
# Experimental: Cellular Oxygen Consumption Rate (OCR) was measured by using an XFe96 extracellular flux analyzer (Seahorse Bioscience, Billerica, MA, USA) which also entailed the mitochondrial stress test as described previously. HT-22 cells (10,000 cells/well) were seeded onto the XFe96-well cell culture microplate and incubated at 37 °C, 5% CO2. 24 h before the assay, the growth medium was replaced with a fresh medium containing either DMSO 1%, erastin 1 µM, CE3F4 alone, ESI-05 alone or a co-treatment of erastin with either CE3F4 or ESI-05. Cells in 180 μL of assay non-buffered DMEM medium supplemented with 2 mM glutamine, 4.5 g/L glucose and 1 mM pyruvate, pH 7.35 were incubated for 1 h in a CO2 free incubator at 37 °C. Basal respiration was measured before injecting the inhibitors that included; oligomycin (4 μM; port A)—an ATP synthase inhibitor; 2,4-dinitrophenol (DNP) (Sigma–Aldrich Chemie GmbH, Steinheim, Germany, #34334) (50 μM; port B)—a mitochondrial oxidative phosphorylation uncoupler; and rotenone (Sigma–Aldrich Chemie GmbH, Steinheim, Germany, #R8875) together with antimycin A (Sigma–Aldrich Chemie GmbH, Steinheim, Germany, #A8674) 0.1 μM and 1 μM; port C)—complex I and complex III inhibitors. By using the BCA assay, OCR measurements were normalized to the protein amount in every well. Three independent experiments with six wells per condition were performed, and a one-way ANOVA test was used to determine statistical significance among different groups.
# HT-22 cells [2] = test: Brightfield images of cell morphology; format: cell-based, mouse; conditions: 100 μM CE3F4 + erastin 1 μM
# Epac1 = conditions: CE3F4, Epac1 inhibitor; cited from earlier work
# HT-22 cells [3] = test: Soluble ROS, CM-DCF FACS; format: cell-based, mouse
# Experimental: Soluble ROS was evaluated by CM-DCF fluorescent dye (Invitrogen, Oregon City, OR, USA). CM-DCF passively diffuses into cells, and reacts with glutathione and other thiols following cleavage by intracellular esterases, which in turn exposes the thiol-reactive chloromethyl group. The oxidation that follows results in a fluorescent adduct that is ensnared within the cell. The higher the fluorescence, the more cellular ROS is produced in the cells.
# HT-22 cells [4] = test: Cell death assessment, FACS analysis of PI staining
# Experimental: (§1) Flow cytometry analysis using the CytoFLEXS benchtop flow cytometer (Beckman Coulter Life Sciences, Indianapolis, IN, USA) was used to evaluate intracellular parameters that are associated with not only oxidative stress but also mitochondrial dysfunction, and cell death. HT-22 cells (40,000 cells/well) seeded in 24-well plates were treated with various conditions. Treatment groups included: control condition (DMSO 1%), erastin 1 µM or 1.5 µM, CE3F4 100 µM, and co-treatment of erastin and CE3F4. Three separate wells were analyzed for each condition and the same number of counts (10,000/well) were measured by flow cytometry. At least three independent experiments were performed, and the Kaluza Analysis 1.5 software was employed for quantification of data.
# The amount of cell death after stimulation with erastin for 16–17 h was assessed by incubating trypsonized HT-22 cell suspension with propidium iodide (PI) (Invitrogen, Oregon City, OR, USA, #V13242, Lot #2008168) in a binding buffer. Incubation with the dye was for 30 min at RT. Fluorescence was detected at 494/518 and 535/617 for FITC and PI respectively.
# HT-22 cells [5] = test: Mitochondrial superoxide, MitoSOX FACS
# Experimental: as §1
# MitoSOX dye (Invitrogen, Oregon City, OR, USA, #M36008, Lot#1924466) was used to evaluate mitochondrial ROS. The MitoSOX dye is able to permeate live cells and also selectively target mitochondria where it is swiftly oxidized by superoxides but not by other reactive oxygen species. […] Incubation of HT-22 cells with MitoSOX™ 1.25 μM dye was done for 30 min at 37 °C. Fluorescence excitation and detection were done at 488 nm and 690/50 nm respectively.
# HT-22 cells [6] = test: Mitochondrial morphology (MitoTracker Deep Red, categories I-III); format: cell-based, mouse
# Experimental: Mitochondrial morphology was assessed using imaging of HT-22 cells stained with MitoTracker™Deep Red FM (Invitrogen, Oregon City, OR, USA, #M22426). Cells were treated with either erastin 1 µM, CE3F4 100 µM, or co-treated with erastin 1 µM and CE3F4 100 μM for 18 h. After the treatment, cells were incubated with 200 nM MitoTracker™Deep Red FM for 30 min at 37 °C. Untreated cells were included as controls. 4% paraformaldehyde (PFA) was used for fixation and detection of the MitoTracker fluorescence was achieved by 620 nm (excitation) and 700 ± 75 nm (detection). 500 cells per condition were counted and grouped into three different categories, based on their mitochondrial morphology/shape. The analysis and categorization of mitochondria was done by an investigator without previous knowledge of the various experimental conditions. Category I included healthy cells with mitochondria that form an elongated tubular network that is distributed equally throughout the cytosol. It could also include short mitochondria, but distributed in the cytosol. On the other hand, Category II included cells which contained large, and fragmented/granulated mitochondria around the nucleus. […] Category III represented damaged and dying cells with observed small rounded mitochondria of varying sizes and in proximity to the nucleus.. At least three independent experiments were performed.
# HT-22 cells [7] = test: xCELLigence real-time cell impedance measurement; format: cell-based, mouse; conditions: ≥30 µM CE3F4 (30 and 100 μM), erastin 1 μM
# Experimental: Cell viability and metabolic activity of cells was first assessed using a colorimetric 3-(4,5-dimethylthiazol-2-yl)-2,5-diphenyltetrazolium Bromide (MTT) (Sigma–Aldrich Chemie GmbH, Steinheim, Germany, #M5655) reduction assay. Cells in a 96-well plate format (8–10,000 cells/well) were incubated with the MTT solution (0.5 mg/mL) for a maximum of 1 h at 37 °C. Afterward, the MTT-containing solution was entirely removed, and the 96-well plate was incubated at −80 °C for at least 2 h. To allow formazan to uniformly disperse in the medium, dimethyl sulfoxide (DMSO) (Sigma–Aldrich Chemie GmbH, Steinheim, Germany, #D8418, Lot# SHBH9942) was administered to the cells for 1 h at 37 °C with continuous shaking. The absorbance values were determined by Synergy™H1 (Bad Friedrichshall, Germany) Hybrid MultiMode Reader at 570 nm with a 630 nm reference filter. The absorbance values of untreated healthy cells or cells treated with DMSO 1% (used as a solvent for various pharmacological applications) were regarded as 100% of cell viability. […] HT-22 cells were treated with the following conditions: control condition (solvent), drug of interest, erastin, and pre- or co-treatment with erastin and drug of interest. […] Continuous cell monitoring was performed by using an E-plate 96 and the cellular impedance or cell resistance was assessed every 15 min for 24 h.
# HT-22 cells [8] = test: Lipid peroxidation, BODIPY FACS; conditions: 100 μM CE3F4 + erastin 1 μM
# Experimental: as §1
# The staining dye BODIPY 2 μM (Invitrogen, Karlsruhe, Germany, # D3861, Lot # 1890330) was used to estimate lipid peroxidation. Erastin treatment was done for 4 h. HT-22 cells were then stained for 30 min at RT, followed by a one-time wash with PBS and finally analyzed. Fluorescence excitation and detection were done at 488 nm and 530 nm respectively.
# [9] = CE3F4 + erastin 1 μM vs erastin alone
compound,measurement,setting,value
CC1CCc2c(cc(Br)c(F)c2Br)N1C=O (stereo not shown) [CE3F4],maximal respiration,HT-22 cells [1]; 100 μM CE3F4 alone,increased maximal respiration
same,ATP-linked OCR,HT-22 cells [1]; [9],did not reach statistical significance
same,basal OCR,HT-22 cells [1]; [9],did not reach statistical significance
same,maximal OCR,HT-22 cells [1]; [9],significantly increased
same,effect on erastin-induced alteration in cell morphology,HT-22 cells [2],prevented
same,IC50,Epac1,23 ± 3 µM
same,intracellular ROS production (CM-DCF),"HT-22 cells [3]; 100 μM CE3F4 + erastin vs erastin alone, not restored to control levels",significant decrease in intracellular ROS production
same,total intracellular ROS production (CM-DCF),HT-22 cells [3]; 100 μM CE3F4 alone,did not influence the amount of total intracellular ROS production
same,effect on erastin-induced cell death (PI staining),HT-22 cells [4]; co-treatment 30 μM CE3F4 + erastin 1 μM,markedly attenuated
same,effect on erastin-induced cell death (PI staining),HT-22 cells [4]; co-treatment 100 μM CE3F4 + erastin 1 μM,markedly attenuated
same,mitochondrial superoxide levels,HT-22 cells [5]; 30 μM CE3F4 alone,shift towards the intermediate mitochondrial superoxide
same,mitochondrial superoxide levels (intermediate),"HT-22 cells [5]; 100 μM CE3F4 alone, compared with 30 μM",further increased
same,effect on erastin-mediated mitochondrial superoxide levels,HT-22 cells [5]; CE3F4 30 μM + erastin 1 μM,did not affect erastin-mediated effects on mitochondrial superoxide levels
same,effect on erastin-mediated mitochondrial superoxide levels,HT-22 cells [5]; CE3F4 100 μM + erastin,significantly attenuated the increase in high mitochondrial superoxide levels
same,"mitochondrial morphology, category III",HT-22 cells [6]; 30 µM CE3F4 + erastin 1 μM vs erastin alone,significant decrease of category III mitochondrial fragmentation
same,mitochondrial morphology,HT-22 cells [6]; 100 μM CE3F4 + erastin 1 μM,completely abolished the effects of erastin on mitochondrial morphology
same,mitochondrial morphology,HT-22 cells [6]; CE3F4 alone (100 µM),did not alter mitochondrial morphology
same,protection against erastin-induced cell death (cell impedance),HT-22 cells [7],markedly prevented erastin-induced cell death
same,effect on erastin-induced lipid peroxidation,HT-22 cells [8],significantly attenuated
